{
  "source": "paper PMC6271282",
  "about": "“Playing with Opening and Closing of Heterocycles: Using the Cusmano-Ruccia Reaction to Develop a Novel Class of Oxadiazolothiazinones, Active as Calcium Channel Modulators and P-Glycoprotein Inhibitors” (Molecules, 2014)",
  "key": {"[1]": {"target": "T1, L-type Ca2+ channel (LTCC, Cav1.2) (Rattus norvegicus, UniProt P22002)", "T1 construct": "gene Cacna1c; native channel in single rat tail main artery myocytes", "T1 sequence (P22002 whole entry)": "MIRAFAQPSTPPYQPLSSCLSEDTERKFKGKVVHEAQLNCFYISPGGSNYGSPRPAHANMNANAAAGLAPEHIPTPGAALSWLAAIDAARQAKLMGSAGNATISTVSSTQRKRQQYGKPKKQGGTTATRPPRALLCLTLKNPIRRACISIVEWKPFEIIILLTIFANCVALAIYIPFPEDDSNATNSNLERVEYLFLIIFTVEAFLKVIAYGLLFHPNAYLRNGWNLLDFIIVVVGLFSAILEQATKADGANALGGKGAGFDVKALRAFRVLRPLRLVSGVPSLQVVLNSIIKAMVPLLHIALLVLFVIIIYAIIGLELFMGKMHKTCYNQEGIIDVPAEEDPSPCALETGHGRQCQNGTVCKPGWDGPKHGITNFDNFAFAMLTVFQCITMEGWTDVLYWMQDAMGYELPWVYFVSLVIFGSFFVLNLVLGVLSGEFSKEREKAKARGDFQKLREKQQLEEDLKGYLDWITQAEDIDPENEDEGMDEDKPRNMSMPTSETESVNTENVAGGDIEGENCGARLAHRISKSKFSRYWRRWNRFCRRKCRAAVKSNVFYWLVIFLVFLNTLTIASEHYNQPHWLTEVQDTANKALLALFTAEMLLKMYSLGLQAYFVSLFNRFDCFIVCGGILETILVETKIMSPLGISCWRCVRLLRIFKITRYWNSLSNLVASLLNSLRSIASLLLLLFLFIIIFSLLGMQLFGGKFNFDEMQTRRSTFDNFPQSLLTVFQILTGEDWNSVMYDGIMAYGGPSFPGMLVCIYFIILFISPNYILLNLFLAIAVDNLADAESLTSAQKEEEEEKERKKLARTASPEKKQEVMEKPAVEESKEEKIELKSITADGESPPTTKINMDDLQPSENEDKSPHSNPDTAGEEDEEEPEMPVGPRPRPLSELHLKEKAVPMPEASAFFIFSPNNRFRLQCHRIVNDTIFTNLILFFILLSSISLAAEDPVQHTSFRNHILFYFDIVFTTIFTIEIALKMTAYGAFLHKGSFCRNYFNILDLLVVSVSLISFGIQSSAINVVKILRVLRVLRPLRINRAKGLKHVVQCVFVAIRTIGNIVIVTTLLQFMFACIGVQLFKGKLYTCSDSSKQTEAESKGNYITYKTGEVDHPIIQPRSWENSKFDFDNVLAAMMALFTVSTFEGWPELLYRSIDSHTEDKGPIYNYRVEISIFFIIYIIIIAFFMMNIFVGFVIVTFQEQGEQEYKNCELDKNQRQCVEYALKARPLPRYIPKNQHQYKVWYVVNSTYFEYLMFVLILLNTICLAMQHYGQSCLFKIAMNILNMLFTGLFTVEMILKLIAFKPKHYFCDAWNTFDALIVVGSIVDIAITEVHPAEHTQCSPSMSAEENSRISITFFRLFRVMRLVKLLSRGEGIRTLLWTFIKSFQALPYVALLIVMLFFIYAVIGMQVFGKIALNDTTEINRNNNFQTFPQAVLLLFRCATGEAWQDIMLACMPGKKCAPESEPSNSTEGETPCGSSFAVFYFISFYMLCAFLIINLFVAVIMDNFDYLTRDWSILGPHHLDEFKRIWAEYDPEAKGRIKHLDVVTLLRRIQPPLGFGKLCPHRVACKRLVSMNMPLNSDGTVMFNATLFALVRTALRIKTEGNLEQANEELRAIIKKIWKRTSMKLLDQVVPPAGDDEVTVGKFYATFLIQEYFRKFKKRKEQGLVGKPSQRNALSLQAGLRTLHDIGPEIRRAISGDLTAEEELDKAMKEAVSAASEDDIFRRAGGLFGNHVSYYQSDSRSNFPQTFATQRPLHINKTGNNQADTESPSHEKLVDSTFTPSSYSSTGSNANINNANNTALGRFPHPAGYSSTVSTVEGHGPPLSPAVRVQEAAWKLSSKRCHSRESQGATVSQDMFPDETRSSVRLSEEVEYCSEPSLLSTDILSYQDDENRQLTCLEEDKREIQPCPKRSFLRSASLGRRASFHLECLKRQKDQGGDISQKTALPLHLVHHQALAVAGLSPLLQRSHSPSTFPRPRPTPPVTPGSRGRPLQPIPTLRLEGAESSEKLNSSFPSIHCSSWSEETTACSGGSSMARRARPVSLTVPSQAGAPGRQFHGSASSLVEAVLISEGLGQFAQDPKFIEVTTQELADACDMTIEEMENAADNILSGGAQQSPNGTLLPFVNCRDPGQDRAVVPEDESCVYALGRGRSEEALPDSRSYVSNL", "experiment": "whole-cell patch clamp, IBa(L)", "format": "cell-based"}, "[2]": {"target": "T1, L-type Ca2+ channel (LTCC, Cav1.2)", "experiment": "whole-cell patch clamp, IBa(L); also potentiates [3H]diltiazem binding in rat cardiomyocytes ([…])", "format": "cell-based"}},
  "note": "pIC50: −log10 of the molar value.",
  "data": [
    {"compound": "CC1=CSC(OCCN2CCCCC2)(c2ccc(Br)cc2)c2noc(=O)n21", "note": "(centres unmarked) [compound 32, 8-(4-Bromophenyl)-5-methyl-8-(2-piperidin-1-ylethoxy)-8H-[1,2,4]oxadiazolo[3,4-c][1,4]thiazin-3-one]", "values": [
      {"measurement": "pIC50", "setting": "[1]", "value": "~4.52"}
    ]},
    {"compound": "O=c1onc2n1-c1ccc(Cl)cc1SC2(O)c1ccc(Br)cc1", "note": "(centres unmarked) [compound 30, 4-(4-Bromophenyl)-7-chloro-4-hydroxy-4H-[1,2,4]oxadiazolo[3,4-c][1,4]benzothiazin-1-one]", "values": [
      {"measurement": "pIC50", "setting": "[2]", "value": "~5.52"}
    ]}
  ]
}
